This is an account of results in US5714155A, “Ethylenediamine derivative in a cosmetic or dermatological composition, and composition containing in particular a product having an irritant side effect” (Societe L'oreal S.A., priority 1994, dated 1998).

Molecules are shown by their SMILES.

The test concerns contraction of guinea pig ileum by substance P. Briefly: Antagonism of the in vitro contraction of guinea pig ileum by substance P. Format: cell-based. As to conditions: for substance P antagonism (conclusion of the tests): conclusion from NK1 binding and guinea pig ileum tests. On the procedure:
b). Model of antagonism of the in vitro contraction of guinea pig ileum by substance P (10 nM) according to the technique described by Dion et al., Life Sci. 41: 2269-78 (1987) and Patacchini et al., Eur. J. Pharmacol. 215: 93-8 (1992).

For `Cc1cc(C)cc(CNCCNCc2cc(C)cc(C)c2)c1` [Example 1, N,N'-bis(3,5-dimethylbenzyl)ethylenediamine], the “substance P antagonism (conclusion of the tests)” value is on record as “substance P antagonists”. Also, where the note is “Cavia porcellus, 1 μM, substance P 10 nM”, the inhibition at 1 µM was -24%. Further, the inhibition at 10 µM (Cavia porcellus, 10 μM, substance P 10 nM) was -92%. Further, the inhibition at 100 µM (Cavia porcellus, 100 μM, substance P 10 nM) was -100%.
Turning to `COc1cc(CNCCNCc2cc(OC)cc(OC)c2)cc(OC)c1` [Example 2, N,N'-bis(3,5-dimethoxybenzyl)ethylenediamine], the “substance P antagonism (conclusion of the tests)” value is on record as “substance P antagonists”.

What is called inhibition is the drop in the measured response relative to a control, in per cent.
